Experiment: UV-vis absorption, stability constant by modified Benesi-Hildebrand equation
Assay type: physicochemical
Conditions: UV absorption spectra, ethanol/water (50%, v/v), 1:1 host-guest complex assumed
Description: Furthermore, absorption spectra obtained with various concentrations of β-CD (0 to 1.44 mmol/L) and added to a constant drug (0.03753 mmol/L UA or 0.038715 mmol/L OA) concentration in ethanol/water (50%, v/v) were scanned by the UV spectrophotometry (Shimadzu UV-2401 visible spectrophotometer, Shimadzu Corp., Tokyo, Japan). The stability constant was calculated according to the modified Benesi-Hildebrand equation Eq. (1) assuming the formation of a 1:1 host-guest complex^[[14]^].
(1) 1/ΔA=1/KΔε[D]01/[CD]0+1/Δε[D]0 Where ΔA was the change in absorbance of drugs at λmax in the presence and absence of β-CD. [D]0 and [CD]0 were the total concentration of added drug and β-CD, respectively. Δε represented the difference in molar absorptivities between the free drug and the inclusion complex, and K was the stability constant.

Compound | stability constant K [L/mol]
C[C@H]1[C@H](C)CC[C@]2(C(=O)O)CC[C@]3(C)C(=CC[C@@H]4[C@@]5(C)CC[C@H](O)C(C)(C)[C@@H]5CC[C@]43C)[C@H]12 [UA, ursolic acid] | 5642
CC1(C)CC[C@]2(C(=O)O)CC[C@]3(C)C(=CC[C@@H]4[C@@]5(C)CC[C@H](O)C(C)(C)[C@@H]5CC[C@]43C)[C@@H]2C1 [OA, oleanolic acid] | 5157
